From PubChem BioAssay (NCI)
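1) Cells in 96-well plates. 2) Compound, 48 h, 5 concentrations. 3) Linear interpolation between surrounding doses. 4) Unreached endpoint = highest concentration. At the TGI there is no net growth.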

Tests used:
Assay in all cases: NCI tumour cell line growth inhibition, 48 h
786-0 renal = test system: 786-0 renal
ACHN renal = test system: ACHN renal
CAKI-1 renal = test system: CAKI-1 renal
CCRF-CEM leukemia = test system: CCRF-CEM leukemia
DU-145 prostate = test system: DU-145 prostate
HCC-2998 colon = test system: HCC-2998 colon
HOP-62 NSCLC = test system: HOP-62 NSCLC
HOP-92 NSCLC = test system: HOP-92 NSCLC
HT29 colon = test system: HT29 colon
K-562 leukemia = test system: K-562 leukemia
M14 melanoma = test system: M14 melanoma
MALME-3M melanoma = test system: MALME-3M melanoma
NCI-H460 lung = test system: NCI-H460 lung
NCI-H522 lung = test system: NCI-H522 lung
OVCAR-3 ovarian = test system: OVCAR-3 ovarian
SK-MEL-2 melanoma = test system: SK-MEL-2 melanoma
SK-MEL-5 melanoma = test system: SK-MEL-5 melanoma

Row | SMILES | TGI (786-0 renal) | TGI (ACHN renal) | TGI (CAKI-1 renal) | TGI (CCRF-CEM leukemia) | TGI (DU-145 prostate) | TGI (HCC-2998 colon) | TGI (HOP-62 NSCLC) | TGI (HOP-92 NSCLC) | TGI (HT29 colon) | TGI (K-562 leukemia) | TGI (M14 melanoma) | TGI (MALME-3M melanoma) | TGI (NCI-H460 lung) | TGI (NCI-H522 lung) | TGI (OVCAR-3 ovarian) | TGI (SK-MEL-2 melanoma) | TGI (SK-MEL-5 melanoma)
1 | CC1C(c2ccccc2)OP(=O)(OC(C#N)c2ccccc2)N1C (centres undefined) | > 100 µM | > 100 µM | > 100 µM | > 100 µM | > 100 µM | > 100 µM | > 100 µM | > 100 µM | > 100 µM | > 100 µM | > 100 µM | > 100 µM | > 100 µM | > 100 µM | > 100 µM | > 100 µM | > 100 µM
2 | CCCCCC/C=C\CCCCCCCCCc1cccc(O)c1C(=O)O | > 100 µM | > 100 µM | > 100 µM | > 100 µM | > 100 µM | > 100 µM | > 100 µM | > 100 µM | > 100 µM | > 100 µM | > 100 µM | > 100 µM | > 100 µM | > 100 µM | > 100 µM | 95.8 µM | > 100 µM
3 | CCOC(=O)/C(C(=S)Nc1ccccc1)=C(/N)N1CCCC1 | > 100 µM | > 100 µM | > 100 µM | > 100 µM | > 100 µM | > 100 µM | > 100 µM | 53.2 µM | > 100 µM | > 100 µM | > 100 µM | > 100 µM | > 100 µM | > 100 µM | > 100 µM | > 100 µM | > 100 µM
4 | C=Cc1c(C)c(OC)cc2c1Oc1ccc(OC)c(C)c1CC2 | > 100 µM | > 100 µM | > 100 µM | > 100 µM | > 100 µM | > 100 µM | > 100 µM | > 100 µM | > 100 µM | > 100 µM | > 100 µM | > 100 µM | > 100 µM | > 100 µM | – | > 100 µM | > 100 µM
5 | C=CCOC(=O)/C(=C\c1ccc(OC)c(OC)c1)c1ccc(OC)c(OC)c1 | > 100 µM | > 100 µM | > 100 µM | > 100 µM | > 100 µM | > 100 µM | > 100 µM | > 100 µM | > 100 µM | > 100 µM | > 100 µM | > 100 µM | > 100 µM | > 100 µM | > 100 µM | > 100 µM | > 100 µM
6 | C=C1CC2OC2(C(=O)O[C@H]2CCC3[C@@H]4CCC5=CC(=O)CC[C@]5(C)C4CC[C@@]32C)C1=O (some centres undefined) | 4.83 µM | 16.2 µM | 25 µM | 12.7 µM | 32.9 µM | 74.5 µM | 44.4 µM | 23.5 µM | 24.3 µM | 7.03 µM | 16.6 µM | 16.5 µM | 28.9 µM | 8 µM | 21.8 µM | 15.1 µM | 27.6 µM
7 | COC(=O)c1c2n(c3ccccc13)C[C@H]1OC(C)(C)O[C@@H]21 | > 100 µM | > 100 µM | > 100 µM | > 100 µM | > 100 µM | > 100 µM | > 100 µM | > 100 µM | > 100 µM | > 100 µM | > 100 µM | > 87.6 µM | > 100 µM | > 100 µM | > 100 µM | > 100 µM | > 100 µM
8 | COc1cc(/C=C2/CCS(=O)(=O)c3ccc(C)cc3C2=O)cc(OC)c1OC | > 35.4 µM | 14.2 µM | > 40.8 µM | > 100 µM | > 27.6 µM | > 35.7 µM | 23.1 µM | > 43.2 µM | > 33.8 µM | 4.06 µM | 18.9 µM | > 36.3 µM | 13.5 µM | 12.4 µM | 20.1 µM | 99.2 µM | > 38.3 µM
9 | CC1=C(N2CC2)C(=O)c2nc3n(c2C1=O)CCC3OC(=O)CCl (centres undefined) | 0.191 µM | 0.216 µM | 0.174 µM | 3.65 µM | 0.19 µM | 0.136 µM | 0.145 µM | 8.04 µM | 0.337 µM | 1.61 µM | 0.0814 µM | 0.103 µM | 0.123 µM | 0.0617 µM | 0.52 µM | 0.271 µM | 0.0893 µM
10 | O=c1oc2ccccc2c(Nc2ccc3c(c2)S(=O)(=O)c2ccccc2O3)c1[N+](=O)[O-] | 58.4 µM | 70.2 µM | 51.3 µM | 83.5 µM | > 100 µM | 52.6 µM | > 100 µM | 55.9 µM | > 100 µM | 71.3 µM | > 100 µM | 64.6 µM | 91.7 µM | 42.9 µM | 79 µM | 46.4 µM | 50.1 µM
11 | Cc1ccc(N2C(=O)C3c4[nH]c5ccccc5c4C4CCC(C(C)(C)C)CC4C3C2=O)cc1 (centres undefined) | 14.8 µM | 13.6 µM | 23.2 µM | 15.4 µM | 5.82 µM | 56.1 µM | 11.6 µM | 32.9 µM | 46.1 µM | 17.5 µM | 35.6 µM | 22.6 µM | 17.2 µM | 26.5 µM | 8.62 µM | 44.6 µM | 36.4 µM
12 | O=C(NCc1cccnc1)NCc1cccnc1 | > 100 µM | > 100 µM | > 100 µM | – | > 100 µM | > 100 µM | > 100 µM | > 100 µM | > 100 µM | > 100 µM | > 100 µM | > 100 µM | > 100 µM | > 100 µM | > 100 µM | > 100 µM | > 100 µM
13 | Cc1cc(C)c(C2=NOC(c3ccccc3)(c3cc(=O)n(-c4ccccc4)s3)O2)c(C)c1 (centres undefined) | 41.3 µM | 52.2 µM | 33.7 µM | > 100 µM | > 100 µM | > 100 µM | > 100 µM | 62.5 µM | 41.2 µM | > 100 µM | 76.8 µM | 40.1 µM | > 100 µM | 35.8 µM | – | 89.5 µM | > 100 µM
14 | COc1ccc(NC(=O)CC(=O)N2N=C(C)C(N=Nc3ccc(S(=O)(=O)c4ccc(N=NC5C(=O)N(C(=O)CC(=O)Nc6ccc(OC)cc6)N=C5C)cc4)cc3)C2=O)cc1 (centres undefined) | > 100 µM | > 100 µM | > 100 µM | > 100 µM | > 100 µM | > 100 µM | > 100 µM | > 100 µM | > 100 µM | > 100 µM | > 100 µM | > 100 µM | > 100 µM | > 100 µM | > 100 µM | > 100 µM | > 100 µM
15 | CC(=O)OC1C(O)COC(O[C@H]2CC[C@]34C[C@]35CC[C@]3(C)C([C@@]6(C)CC[C@@H](C(C)(C)O)O6)[C@@H](O)C[C@@]3(C)C5C[C@H](OC3OCC(O)C(O)C3O)[C@H]4C2(C)C)C1OC1OCC(O)C(O)C1O (some centres undefined) | > 100 µM | > 100 µM | > 100 µM | – | > 100 µM | > 100 µM | > 100 µM | > 100 µM | > 100 µM | > 100 µM | > 100 µM | > 100 µM | > 100 µM | > 100 µM | > 100 µM | > 100 µM | > 100 µM
16 | CC1(C)CS(=O)(=O)CC(C)(C)C(=N/N)/C1=N\N | > 100 µM | > 100 µM | > 100 µM | – | > 100 µM | > 100 µM | > 100 µM | > 100 µM | > 100 µM | > 100 µM | > 100 µM | > 100 µM | > 100 µM | > 100 µM | > 100 µM | > 100 µM | > 100 µM
17 | COc1cc(OC)c(OC)cc1/C=N/N=C(\N)NO | > 100 µM | > 100 µM | > 100 µM | > 100 µM | > 100 µM | > 100 µM | > 100 µM | > 100 µM | > 100 µM | > 100 µM | > 100 µM | > 100 µM | > 100 µM | > 100 µM | > 100 µM | > 100 µM | > 100 µM
18 | COCn1c2ccc(OC(C)=O)cc2c2c(=O)oc(N(C)C)nc21 | > 100 µM | > 100 µM | > 100 µM | > 100 µM | > 100 µM | > 100 µM | > 100 µM | > 100 µM | > 100 µM | > 100 µM | > 100 µM | > 100 µM | > 100 µM | > 100 µM | – | > 100 µM | > 100 µM
19 | COC(=O)c1ccc2c(O)c(O)ccc2c1 | 29.3 µM | 30.9 µM | 47.3 µM | > 27 µM | 30.1 µM | 29.6 µM | 32.9 µM | 33.6 µM | 33.7 µM | 5.43 µM | 31 µM | 24.2 µM | 39.3 µM | 29.1 µM | 17 µM | 13.8 µM | 8.58 µM
20 | CCC1C(c2cc(OC)c(OC)c(OC)c2)c2cc3c(cc2OC1N1CCCC1)OCO3 (centres undefined) | 22.2 µM | 26.6 µM | 9.8 µM | 11.9 µM | 14.6 µM | 8.16 µM | 15.9 µM | 21.3 µM | 10.9 µM | 8.62 µM | 26.6 µM | 40.3 µM | 12.4 µM | 10.1 µM | 8.53 µM | 13 µM | 12.5 µM
